Entries after “also recorded” stand apart in the source; their conditions may differ. Peptide text beside a SMILES is read from it.
System: chick sensory neurons from dorsal root ganglia
Experiment: Chick dorsal root ganglion cultures and neurite outgrowth
Format: cell-based
Details: 1 mM concentration; whole DRG explants, forty-eight hours after drug treatment
Procedure: Dorsal root ganglia were dissected from chick embryos of ten-day gestation. Whole ganglion explants were cultured on thin layer Matrigel-coated 12 well plates with Liebovitz L15 plus high glucose media supplemented with 2 mM glutamine and 10% fetal calf serum, and also containing 10 μM cytosine […] (Ara C) at 37° C. in an environment containing 5% CO2. Twenty-four hours later, the DRGs were treated with various concentrations of nerve growth factor, immunophilin ligands or combinations of NFG plus drugs. Forty-eight hours after drug treatment, the ganglia were visualized under phase contrast or Hoffman Modulation contrast with a Zeiss Axiovert inverted microscope. Photomicrographs of the explants were made, and neurite outgrowth was quantitated. Neurites longer that the DRG diameter were counted as positive, with total number of neurites quantitated per each experimental condition. Three to four DRGs are cultured per well, and each treatment was performed in duplicate.
The maximal increase in the number of processes, their length and branching is quite similar at maximally effective […] of the cyclophilin ligands and of NGF (100 ng/ml). With progressively increasing concentrations of the various drugs, one observes a larger number of processes, more extensive branching and a grater length of individual processes.

Compound | neurotrophic effects (promotion of neurite outgrowth in chick sensory neurons)
CC(=O)N1CCC[C@H]1C(=O)N[C@@H](C)C(=O)N1CCC[C@H]1C(=O)N[C@@H](C)C(N)=O [compound 2] (Ac-PAPA-NH2) | promotion of neurite outgrowth; also recorded: potent neurotrophic effects
CC(=O)N1CCC[C@H]1C(=O)NCC(=O)N1CCC[C@H]1C(=O)N[C@@H](Cc1ccccc1)C(N)=O [compound 1] (Ac-PGPF-NH2) | promotion of neurite outgrowth; also recorded: powerful neurotrophic effects
